Experimental data published in ChEMBL document CHEMBL1201862, “PubChem BioAssay data set” (2004).
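Five compound concentrations were applied to cells in 96-well plates for 48 hours; endpoints were derived by simple linear interpolation of the resulting dose-response curve. The concentration for 50% growth inhibition is given as GI50.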 Calls of active or inactive are those of the source. No stated cut-off is given here; in the data, active = GI50 up to about 1.1 µM and inactive = higher.

Legend:
Experiment in all cases: NCI tumour cell line growth inhibition, 48 h
K562 = tested on: K562
MDA-MB-231 = tested on: MDA-MB-231
MDA-MB-435 = tested on: MDA-MB-435
HOP-62 = tested on: HOP-62
SN12C = tested on: SN12C
MDA-N = tested on: MDA-N
NCI-H23 = tested on: NCI-H23
HCT-15 = tested on: HCT-15
CCRF-CEM = tested on: CCRF-CEM
PC-3 = tested on: PC-3
786-0 = tested on: 786-0
NCI-H522 = tested on: NCI-H522
HOP-92 = tested on: HOP-92
NCI-H460 = tested on: NCI-H460
T47D = tested on: T47D
SK-MEL-28 = tested on: SK-MEL-28
OVCAR-4 = tested on: OVCAR-4
COLO 205 = tested on: COLO 205
OVCAR-3 = tested on: OVCAR-3
HCC 2998 = tested on: HCC 2998

Compound | GI50 (K562) | GI50 (MDA-MB-231) | GI50 (MDA-MB-435) | GI50 (HOP-62) | GI50 (SN12C) | GI50 (MDA-N) | GI50 (NCI-H23) | GI50 (HCT-15) [µM] | GI50 (CCRF-CEM) | GI50 (PC-3) | GI50 (786-0) | GI50 (NCI-H522) | GI50 (HOP-92) | GI50 (NCI-H460) | GI50 (T47D) | GI50 (SK-MEL-28) | GI50 (OVCAR-4) | GI50 (COLO 205) | GI50 (OVCAR-3) | GI50 (HCC 2998)
Cc1c(NC(=O)Nc2c(Cl)cccc2Cl)c(=O)n(-c2ccccc2)n1C | > 100 µM (inactive) | > 100 µM (inactive) | > 100 µM (inactive) | > 100 µM (inactive) | > 100 µM (inactive) | > 100 µM (inactive) | > 100 µM (inactive) | > 100 | 46.7 µM (inactive) | > 100 µM (inactive) | > 100 µM (inactive) | > 100 µM (inactive) | > 100 µM (inactive) | > 100 µM (inactive) | > 100 µM (inactive) | > 100 µM (inactive) | > 100 µM (inactive) | > 100 µM (inactive) | > 100 µM (inactive) | –
Oc1ccccc1/C=N/N1C(=S)N(C23CC4CC(CC(C4)C2)C3)C(=N\c2ccccc2)/C1=N/c1ccccc1 | 4.46 µM (inactive) | 8.04 µM (inactive) | > 100 µM (inactive) | > 100 µM (inactive) | > 100 µM (inactive) | > 100 µM (inactive) | > 100 µM (inactive) | > 100 | – | 8.38 µM (inactive) | > 100 µM (inactive) | 12.8 µM (inactive) | 29.7 µM (inactive) | 71.8 µM (inactive) | 9.35 µM (inactive) | > 100 µM (inactive) | – | 94.4 µM (inactive) | > 100 µM (inactive) | > 100 µM (inactive)
COc1ccc(Nc2nc3ccccc3nc2C(=O)O)cc1OC | > 100 µM (inactive) | 56.2 µM (inactive) | > 100 µM (inactive) | 34.4 µM (inactive) | 48.1 µM (inactive) | > 100 µM (inactive) | 80.4 µM (inactive) | 50.7 | 47.3 µM (inactive) | > 100 µM (inactive) | 73.6 µM (inactive) | > 100 µM (inactive) | 27.5 µM (inactive) | 45.8 µM (inactive) | 33.8 µM (inactive) | 50.2 µM (inactive) | – | > 100 µM (inactive) | 40.2 µM (inactive) | 71.6 µM (inactive)
CC1(c2ccc(Cl)cc2)c2ccccc2C(=O)N1CCCN1C(=O)c2ccccc2C1=O (centres undefined) | 50.5 µM (inactive) | > 100 µM (inactive) | 33.3 µM (inactive) | 49.7 µM (inactive) | > 100 µM (inactive) | 58.7 µM (inactive) | 25.4 µM (inactive) | 34 | 45.1 µM (inactive) | 83 µM (inactive) | 26.2 µM (inactive) | – | 73.6 µM (inactive) | – | 21.3 µM (inactive) | 69.5 µM (inactive) | 61.8 µM (inactive) | 18.5 µM (inactive) | 32.7 µM (inactive) | –
Cc1ccc(C2=NOC(=O)[C@@H]3CCCC[C@@H]23)cc1 | > 100 µM (inactive) | 75.3 µM (inactive) | > 100 µM (inactive) | > 100 µM (inactive) | > 100 µM (inactive) | > 100 µM (inactive) | > 100 µM (inactive) | > 100 | > 100 µM (inactive) | > 100 µM (inactive) | > 100 µM (inactive) | > 100 µM (inactive) | – | – | 76.4 µM (inactive) | > 100 µM (inactive) | > 100 µM (inactive) | > 100 µM (inactive) | > 100 µM (inactive) | > 100 µM (inactive)
O=[N+]([O-])c1ccc(NS(=O)(=O)C(F)(F)F)cc1 | – | > 100 µM (inactive) | > 100 µM (inactive) | > 100 µM (inactive) | > 100 µM (inactive) | > 100 µM (inactive) | > 100 µM (inactive) | > 100 | 92.9 µM (inactive) | > 100 µM (inactive) | > 100 µM (inactive) | 22.1 µM (inactive) | 36.6 µM (inactive) | > 100 µM (inactive) | > 100 µM (inactive) | > 100 µM (inactive) | > 100 µM (inactive) | > 100 µM (inactive) | > 100 µM (inactive) | –
CC(=O)c1c2c(cc3c1CC1(Cc4cc5c(cc4C1=O)CCC5)C3)CCC2 (centres undefined) | 14 µM (inactive) | 40.2 µM (inactive) | 48.9 µM (inactive) | > 100 µM (inactive) | > 61.4 µM (inactive) | > 87.1 µM (inactive) | 30.9 µM (inactive) | 63 | 14.6 µM (inactive) | 13.1 µM (inactive) | > 54.5 µM (inactive) | 22.2 µM (inactive) | – | 42.6 µM (inactive) | 8.91 µM (inactive) | > 100 µM (inactive) | 38.5 µM (inactive) | 64.6 µM (inactive) | > 62.4 µM (inactive) | 72.9 µM (inactive)
CSc1ncc2c(n1)-c1ccccc1OC2 | – | 16.7 µM (inactive) | 56.4 µM (inactive) | – | 39.7 µM (inactive) | 57.1 µM (inactive) | 84.3 µM (inactive) | 51.2 | 59.2 µM (inactive) | 56.4 µM (inactive) | 72.6 µM (inactive) | 44.5 µM (inactive) | 25.6 µM (inactive) | 42.9 µM (inactive) | 15.9 µM (inactive) | – | 61 µM (inactive) | 92.3 µM (inactive) | 27.9 µM (inactive) | –
COc1ccccc1C[C@@H]1OC2(C=CC(=O)C=C2)O[C@H]1Cc1ccccc1OC | 11.5 µM (inactive) | 13.8 µM (inactive) | 14.3 µM (inactive) | 7.4 µM (inactive) | 9.64 µM (inactive) | 6 µM (inactive) | 8.75 µM (inactive) | 5.21 | 3.33 µM (inactive) | 8.69 µM (inactive) | 1.39 µM (inactive) | – | 9.55 µM (inactive) | 23 µM (inactive) | 19.2 µM (inactive) | 8.81 µM (inactive) | 8.38 µM (inactive) | 8.11 µM (inactive) | 8.09 µM (inactive) | –
Cc1ccc(S(=O)(=O)NC(=O)C2=C(c3ccccc3)[N-]N(C)c3nc4cccc[n+]4nc32)cc1 | > 100 µM (inactive) | 50.9 µM (inactive) | > 100 µM (inactive) | – | > 100 µM (inactive) | > 100 µM (inactive) | > 100 µM (inactive) | > 100 | > 100 µM (inactive) | > 100 µM (inactive) | > 100 µM (inactive) | 34.4 µM (inactive) | 12.6 µM (inactive) | > 100 µM (inactive) | 55.1 µM (inactive) | > 100 µM (inactive) | > 100 µM (inactive) | 23.1 µM (inactive) | – | > 100 µM (inactive)
[N-]=[N+]=NC1(c2ccccc2)C(=O)c2cccc3c4ccccc4n(c23)C1=O (centres undefined) | – | > 100 µM (inactive) | 27.9 µM (inactive) | > 100 µM (inactive) | > 100 µM (inactive) | 34.4 µM (inactive) | 52.2 µM (inactive) | > 100 | 64.3 µM (inactive) | > 100 µM (inactive) | > 100 µM (inactive) | 45.6 µM (inactive) | – | > 100 µM (inactive) | > 100 µM (inactive) | > 100 µM (inactive) | > 100 µM (inactive) | 6.5 µM (inactive) | 46.3 µM (inactive) | > 100 µM (inactive)
NNC(=S)NCCNC(=S)NN | – | 30.3 µM (inactive) | > 100 µM (inactive) | > 100 µM (inactive) | > 100 µM (inactive) | > 100 µM (inactive) | > 100 µM (inactive) | – | > 100 µM (inactive) | > 100 µM (inactive) | > 100 µM (inactive) | > 100 µM (inactive) | – | > 100 µM (inactive) | > 100 µM (inactive) | > 100 µM (inactive) | > 100 µM (inactive) | > 100 µM (inactive) | > 100 µM (inactive) | > 100 µM (inactive)
Cc1cccc2nc3c(=O)[nH]c(=O)nc-3n(C)c12 | 46.6 µM (inactive) | > 100 µM (inactive) | 17.6 µM (inactive) | 79.6 µM (inactive) | > 100 µM (inactive) | 62.1 µM (inactive) | 39.1 µM (inactive) | 52.8 | 28.6 µM (inactive) | 66.7 µM (inactive) | 99.3 µM (inactive) | 29.2 µM (inactive) | – | 48.1 µM (inactive) | 53.3 µM (inactive) | > 100 µM (inactive) | 45.5 µM (inactive) | 30.2 µM (inactive) | 28 µM (inactive) | 86.1 µM (inactive)
CCn1c2ccccc2c2cc(/N=N\c3ccc(C#N)cc3)ccc21 | – | 17 µM (inactive) | > 100 µM (inactive) | 28 µM (inactive) | > 100 µM (inactive) | 69.5 µM (inactive) | 23.5 µM (inactive) | > 100 | > 100 µM (inactive) | > 100 µM (inactive) | 29 µM (inactive) | 38.9 µM (inactive) | 25.3 µM (inactive) | 64.7 µM (inactive) | 50.6 µM (inactive) | > 100 µM (inactive) | 98.6 µM (inactive) | 74.5 µM (inactive) | > 100 µM (inactive) | –
COc1cc(-c2nc3cc(F)ccc3s2)ccc1O | 82.8 µM (inactive) | 34.2 µM (inactive) | > 100 µM (inactive) | – | 85.1 µM (inactive) | 99.3 µM (inactive) | 42.2 µM (inactive) | 11.7 | 28.8 µM (inactive) | 49 µM (inactive) | 37.1 µM (inactive) | 19.5 µM (inactive) | – | 70.5 µM (inactive) | 0.286 µM (active) | 33.8 µM (inactive) | 21.9 µM (inactive) | 16.4 µM (inactive) | 12.8 µM (inactive) | 0.0622 µM (active)
O=C1/C(=C/c2ccc(Cl)cc2)Oc2cc(O)ccc21 [6-HYDROXY-4'-CHLORO AURONE] | 19.1 µM (inactive) | 34.6 µM (inactive) | 36.1 µM (inactive) | 32.7 µM (inactive) | 29.8 µM (inactive) | 30.2 µM (inactive) | 36.2 µM (inactive) | 32.6 | 20.2 µM (inactive) | 30.2 µM (inactive) | 33.3 µM (inactive) | 23.8 µM (inactive) | – | 25.1 µM (inactive) | 37.1 µM (inactive) | 59.6 µM (inactive) | 47.5 µM (inactive) | > 100 µM (inactive) | 34.7 µM (inactive) | 39.3 µM (inactive)
